The source made the active and inactive calls. The calls are words filed in the database; no cut-off is given here.
What was measured:
[1] = molecular target: T1, DNA topoisomerase 1 (Homo sapiens) (UniProt P11387); assay: Poison activity at human topoisomerase 1 assessed as formation of cleavage complex using pHOT-1 DNA as substrate incubated for 30 mins by agarose gel electrophoresis
T1 sequence (whole entry): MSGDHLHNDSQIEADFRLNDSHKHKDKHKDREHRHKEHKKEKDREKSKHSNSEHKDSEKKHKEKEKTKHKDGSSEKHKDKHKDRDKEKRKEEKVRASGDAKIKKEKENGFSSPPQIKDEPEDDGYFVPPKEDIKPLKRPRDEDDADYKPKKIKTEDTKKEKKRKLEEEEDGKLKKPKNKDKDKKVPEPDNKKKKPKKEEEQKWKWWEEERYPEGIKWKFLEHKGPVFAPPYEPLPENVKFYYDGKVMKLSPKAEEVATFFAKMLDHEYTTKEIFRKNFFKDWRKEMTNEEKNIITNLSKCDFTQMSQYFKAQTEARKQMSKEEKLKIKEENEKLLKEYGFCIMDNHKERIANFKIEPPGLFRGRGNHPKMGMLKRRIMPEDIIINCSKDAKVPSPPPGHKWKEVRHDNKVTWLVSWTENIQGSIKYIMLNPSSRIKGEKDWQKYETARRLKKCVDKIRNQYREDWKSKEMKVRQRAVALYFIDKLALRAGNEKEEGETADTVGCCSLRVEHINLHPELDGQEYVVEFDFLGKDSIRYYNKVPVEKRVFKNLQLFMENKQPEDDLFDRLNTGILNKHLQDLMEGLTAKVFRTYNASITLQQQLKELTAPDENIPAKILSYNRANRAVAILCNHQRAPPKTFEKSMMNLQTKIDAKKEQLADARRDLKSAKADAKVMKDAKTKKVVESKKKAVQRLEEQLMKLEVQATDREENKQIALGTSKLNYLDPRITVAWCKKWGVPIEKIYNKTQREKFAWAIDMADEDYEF

[2] = tested on: MDA-MB-231; assay: Antiproliferative activity against human MDA-MB-231 cells assessed as inhibition of cell growth incubated for 24 hrs by CCK8 assay; assay type: functional, cell-based; details: for IC50: MDA-MB-231, 24 h
[3] = molecular target: T1, DNA topoisomerase 1 (Homo sapiens); assay: Inhibition of human topoisomerase 1 mediated relaxation of supercoiled pHOT1 DNA at 5 to 20 uM incubated for 30 mins by agarose gel electrophoresis; details: dose 5-20 µM
[4] = tested on: Quadruplex DNA; assay: Inhibition of c-myc G4-quadruplex DNA transcriptional activity in human MDA-MB-231 cells incubated for 24 hrs by RT-PCR analysis; assay type: cell-based
[5] = molecular target: T1, DNA topoisomerase 1 (Homo sapiens); assay: Inhibition of human topoisomerase 1 assessed as DNA intercalation at 1.2 to 10 uM using relaxed pHOT-1 DNA as substrate preincubated with DNA for 10 mins followed by enzyme addition and measured after 30 mins by agarose gel electrophoresis; details: dose 1.2-10 µM, time 40.0 min
[6] = tested on: Calf thymus DNA; assay: Binding affinity to duplex calf thymus DNA assessed as dissociation constant; assay type: nucleic-acid assay, Bos taurus
[7] = molecular target: Quadruplex DNA; assay: Binding affinity to c-myc G4-quadruplex DNA (unknown origin) assessed as dissociation constant by fluorescence spectroscopy; assay type: nucleic-acid assay
[8] = tested on: Calf thymus DNA; assay: Binding affinity to duplex calf thymus DNA assessed as dissociation constant by fluorescence spectroscopy; assay type: nucleic-acid assay, Bos taurus
[9] = tested on: Quadruplex DNA; assay: Stabilization of c-Myc G-quadruplex DNA (unknown origin ) assessed as increase in melting temperature at 6 uM by CD spectroscopy; assay type: nucleic-acid assay
[10] = tested on: Quadruplex DNA; assay: Binding affinity to c-myc G4-quadruplex DNA Pu22 (unknown origin) by NMR spectroscopy; assay type: nucleic-acid assay
[11] = tested on: MDA-MB-231; assay: Inhibition of c-Myc gene transcription expression in human MDA-MB-231 cells at 0.5 to 2 uM incubated for 24 hrs by RT-PCR analysis; assay type: functional, cell-based; details: dose 0.5-2 µM
[12] = tested on: MDA-MB-231; assay: Inhibition of BCL-2 gene transcription expression in human MDA-MB-231 cells at 0.5 to 2 uM incubated for 24 hrs by RT-PCR analysis; assay type: functional, cell-based; details: dose 0.5-2 µM
[13] = tested on: MDA-MB-231; assay: Inhibition of VEGF gene transcription expression in human MDA-MB-231 cells at 0.5 to 2 uM incubated for 24 hrs by RT-PCR analysis; assay type: functional, cell-based; details: dose 0.5-2 µM
[14] = tested on: MDA-MB-231; assay: Inhibition of HRAS gene transcription expression in human MDA-MB-231 cells at 0.5 to 2 uM incubated for 24 hrs by RT-PCR analysis; assay type: functional, cell-based; details: dose 0.5-2 µM
[15] = tested on: CA46; assay: Downregulation of EXON 1 transcription in human CA46 cells incubated for 24 hrs by RT-PCR analysis; assay type: functional, cell-based
[16] = tested on: CA46; assay: Downregulation of EXON 2 transcription in human CA46 cells incubated for 24 hrs by RT-PCR analysis; assay type: functional, cell-based
[17] = tested on: CA46; assay: Downregulation of c-MYC transcription expression in human CA46 cells incubated for 24 hrs by RT-PCR analysis; assay type: functional, cell-based
[18] = tested on: MDA-MB-231; assay: Induction of DNA damage in human MDA-MB-231 cells assessed as increase in gammaH2AX incubated for 24 hrs by western blotting analysis; assay type: functional, cell-based
[19] = tested on: MDA-MB-231; assay: Induction of cell cycle arrest in human MDA-MB-231 cells assessed as accumulation at sub-G1 phase at 0.5 uM incubated for 24 hrs by flow cytometry (reference value: 2.8%); assay type: functional
[20] = tested on: MDA-MB-231; assay: Induction of cell cycle arrest in human MDA-MB-231 cells assessed as accumulation at sub-G1 phase at 1 uM incubated for 24 hrs by flow cytometry (reference value: 2.8%); assay type: functional
[21] = tested on: MDA-MB-231; assay: Induction of cell cycle arrest in human MDA-MB-231 cells assessed as accumulation at sub-G1 phase at 2 uM incubated for 24 hrs by flow cytometry (reference value: 2.8%); assay type: functional
[22] = tested on: MDA-MB-231; assay: Induction of cell cycle arrest in human MDA-MB-231 cells assessed as accumulation at G0/G1 phase at 0.5 uM incubated for 24 hrs by flow cytometry (reference value: 56.6%); assay type: functional
[23] = tested on: MDA-MB-231; assay: Induction of cell cycle arrest in human MDA-MB-231 cells assessed as accumulation at G0/G1 phase at 1 uM incubated for 24 hrs by flow cytometry (reference value: 56.6%); assay type: functional
[24] = tested on: MDA-MB-231; assay: Induction of cell cycle arrest in human MDA-MB-231 cells assessed as accumulation at G0/G1 phase at 2 uM incubated for 24 hrs by flow cytometry (reference value: 56.6%); assay type: functional
[25] = tested on: MDA-MB-231; assay: Induction of cell cycle arrest in human MDA-MB-231 cells assessed as accumulation at S phase at 0.5 uM incubated for 24 hrs by flow cytometry (reference value: 19.2%); assay type: functional
[26] = tested on: MDA-MB-231; assay: Induction of cell cycle arrest in human MDA-MB-231 cells assessed as accumulation at S phase at 1 uM incubated for 24 hrs by flow cytometry (reference value: 19.2%); assay type: functional
[27] = tested on: MDA-MB-231; assay: Induction of cell cycle arrest in human MDA-MB-231 cells assessed as accumulation at S phase at 2 uM incubated for 24 hrs by flow cytometry (reference value: 19.2%); assay type: functional
[28] = tested on: MDA-MB-231; assay: Induction of cell cycle arrest in human MDA-MB-231 cells assessed as accumulation at G2/M phase at 0.5 uM incubated for 24 hrs by flow cytometry (reference value: 20.4%); assay type: functional
[29] = tested on: MDA-MB-231; assay: Induction of cell cycle arrest in human MDA-MB-231 cells assessed as accumulation at G2/M phase at 1 uM incubated for 24 hrs by flow cytometry (reference value: 20.4%); assay type: functional
[30] = tested on: MDA-MB-231; assay: Induction of cell cycle arrest in human MDA-MB-231 cells assessed as accumulation at G2/M phase at 2 uM incubated for 24 hrs by flow cytometry (reference value: 20.4%); assay type: functional
[31] = tested on: MDA-MB-231; assay: Antiproliferative activity against human MDA-MB-231 cells assessed as inhibition in cell growth at 2.5 uM incubated for 24 hrs by CCK8 assay; assay type: functional, cell-based
[32] = Antiproliferative activity against human BJ fibroplast assessed as inhibition of cell growth incubated for 24 hrs by CCK8 assay; details: Fibroblast
[33] = tested on: MDA-MB-231; assay: Anticlonogenic activity against human MDA-MB-231 cells assessed as inhibition of colony formation incubated for 7 days by crystal violet staining based assay; assay type: functional, cell-based; details: time 7.0 day
[34] = tested on: MDA-MB-231; assay: Inhibition of cell migration in human MDA-MB-231 cells incubated for 24 hrs by wound scrape assay; assay type: functional, cell-based
[35] = tested on: MDA-MB-231; assay: Antitumor activity against human MDA-MB-231 cells xenografted in BALB/c mouse assessed as tumor growth inhibition measured at 2.5 mg/kg, ip administered every other day for 20 days; assay type: functional; details: MDA-MB-231, ip, 480 h, time 20 day, read-out: TGI
[36] = tested on: MDA-MB-231; assay: Antitumor activity against human MDA-MB-231 cells xenografted in BALB/c mouse assessed as tumor growth inhibition measured at 5 mg/kg, IP administered every other day for 20 days; assay type: functional; details: MDA-MB-231, ip, 480 h, time 20 day, read-out: TGI
[37] = Toxicity in human MDA-MB-231 cells xenografted BALB/c mouse assessed as body weight loss at 2.5 to 5 mg/kg, ip administered every other day for 20 days; assay type: organism-based; details: in vivo, 480 h, dose 2.5-5 mg/kg, time 20 day
[38] = tested on: Quadruplex DNA; assay: Binding affinity to c-myc G4-quadruplex DNA (unknown origin) by UV-Vis spectrophotometric method; assay type: nucleic-acid assay
[39] = tested on: Quadruplex DNA; assay: Binding affinity to c-myc G4-quadruplex DNA (unknown origin) at 1 uM in presence of ct-DNA by fluorescence spectroscopy; assay type: nucleic-acid assay
[40] = tested on: MDA-MB-231; assay: Inhibition of c-Myc protein expression in human MDA-MB-231 cells at 0.5 to 2 uM incubated for 24 hrs by Western blot analysis; assay type: functional, cell-based; details: dose 0.5-2 µM
[41] = tested on: MDA-MB-231; assay: Antitumor activity against human MDA-MB-231 cells xenografted in ip dosed BALB/c mouse assessed as tumor growth inhibition administered every other day for 20 days; assay type: functional, organism-based; details: dose 2.5-5 […], time 20.0 day

## COc1ccc2nc3c4ccc(N5CCN(C)CC5)cc4c4cc(N5CCN(C)CC5)ccc4c3nc2c1
[1]
  Activity: inactive
[2]
  Activity: Dose-Dependent Effect
[3]
  inhibition: Active
[4]
  inhibition: Active
[5]
  inhibition: Active
[6]
  Kd: 8.3 µM
[7]
  Kd: 0.6 µM
[8]
  Kd: 12.7 µM
[9]
  Tm: 30 °C
[10]
  Activity: Active
[11]
  inhibition: Active
[12]
  inhibition: inactive
[13]
  inhibition: inactive
[14]
  inhibition: inactive
[15]
  Activity: Active
[16]
  Activity: inactive
[17]
  Activity: inactive
[18]
  Activity: Active
[19]
  Activity: 3.1%
[20]
  Activity: 4.7%
[21]
  Activity: 20.2%
[22]
  Activity: 54.4%
[23]
  Activity: 50%
[24]
  Activity: 38.9%
[25]
  Activity: 20.3%
[26]
  Activity: 20.4%
[27]
  Activity: 16.6%
[28]
  Activity: 21.7%
[29]
  Activity: 24.9%
[30]
  Activity: 21.2%
[31]
  Activity: Active
[32]
  IC50: 5.6 µM
[33]
  Activity: Dose-Dependent Effect
[34]
  inhibition: Active
[35]
  inhibition in vivo at 2.5 mg/kg: 52%
[36]
  inhibition in vivo at 5 mg/kg: 66%
[37]
  Activity: Non-Toxic
[38]
  Activity: Active
[39]
  Activity: Active
[40]
  inhibition: inactive
[41]
  Activity: Dose-Dependent Effect

## CN1CCN(c2ccc3c(c2)c2cc(N4CCN(C)CC4)ccc2c2nc4cc(F)ccc4nc32)CC1
[2]
  IC50: 1.1 µM
[3]
  inhibition: Active
[4]
  inhibition: Active

## CN1CCN(c2ccc3c(c2)c2cc(N4CCN(C)CC4)ccc2c2nc4cc(Oc5ccccc5)ccc4nc32)CC1
[2]
  IC50: 2.2 µM
[3]
  inhibition: inactive
[4]
  inhibition: inactive

## CN1CCN(c2ccc3c(c2)c2cc(N4CCN(C)CC4)ccc2c2nc4cc5ccccc5cc4nc32)CC1
[2]
  IC50: 5.4 µM

Source: ChEMBL document CHEMBL5032491, “New Dibenzoquinoxalines Inhibit Triple-Negative Breast Cancer Growth by Dual Targeting of Topoisomerase 1 and the c-MYC G-Quadruplex” (J Med Chem, 2021)
